From patent US9420782B2, “Pesticidal composition in the form of aqueous emulsion” (Sumitomo Chemical Company, Limited, priority 2012, dated 2016)

Test: Retention rate of the agriculturally active ingredient after xenon light irradiation (film on glass petri dish)
Format: physicochemical
Conditions: xenon light (290 nm cutoff), 0.68 W/m^2 at 340 nm, 35° C., neat active ingredient air-dried on petri dish
Description: A method for the calculation of a retention rate of the agriculturally active ingredient defined above is more specifically as follows. First, 250 mg of the agriculturally active ingredient is dissolved in 50 mL of a solvent such as acetone, which can sufficiently dissolve the agriculturally active ingredient and also has high volatility, and 1 mL of the solution is added to a glass petri dish having a diameter of 6 cm using a one-mark pipette, spread entirely over the petri dish, and then air-dried at room temperature. The petri dish is covered with a lid made of quartz glass and then set in a weathering tester (manufactured by Q-Lab Corporation under the trade name of Q-SUN Xenon Accelerated Weathering Tester, Model Xe-3) equipped with a borosilicate filter (manufactured by Q-Lab Corporation under the trade name of Daylight-BB Optical Filter) attached thereto. After irradiation with xenon light under the conditions of an intensity at 340 nm of 0.68 W/m^2 and a temperature of 35° C. (35° C. as measured by an insulated black panel thermometer) for a predetermined time, the amount of the agriculturally active ingredient remaining on the petri dish is determined by a known determination method such as high-performance liquid chromatography. […]

- retention rate after irradiation with xenon light (8 hours): 93.1%
- retention rate after irradiation with xenon light (56 hours): 50.3%
SMILES: CNC(=O)C(OC)c1ccccc1COc1cc(C)ccc1C (stereo not drawn) [compound A, 2-[(2,5-dimethylphenoxy)methyl]-α-methoxy-N-methyl-benzeneacetamide]
